In ChEMBL document CHEMBL4422609, “Overview of the Development of Glutaminase Inhibitors: Achievements and Future Directions” (J Med Chem, 2019) one finds IC50, TGI and inhibition in vivo data, which are given here for 13 compounds.

Usually IC50 stands for the concentration that inhibits the measured activity by half. Higher therefore signals weaker potency. Broadly, the TGI is the reduction of tumour growth relative to the control group.

Molecules are shown by their SMILES.

A short description of experiment [1]: Inhibition of GAC (unknown origin) by fluorescence labeling-based assay. Also noted: species or system Homo sapiens.
The test system of experiment [2] is NCI-H1650. The experiment is described as follows: Antitumor activity against human NCI-H1650 cells harboring EGFR mutant xenografted in mouse assessed as tumor growth inhibition relative to control. Format: functional.
Experiment [3] in a line: Antitumor activity against human CTG-0052 cells xenografted in mouse assessed as tumor growth inhibition at 200 mg/kg, po administered BID relative to control. Format: functional. The settings on record: read-out: TGI. On the technique in general: A xenograft is tissue or cells of one species grown in another, often human tumour cells in immunodeficient mice.
For experiment [4], the system named is NCI-H2122. The experiment is described as follows: Antitumor activity against human NCI-H2122 cells harboring KRAS mutant xenografted in mouse assessed as tumor growth inhibition relative to control. Format: functional.
The nature of experiment [5]: Inhibition of GAC (unknown origin). More on the design: species or system Homo sapiens.
The test system of experiment [6] is RPMI-8226. The experiment is described as follows: Antitumor activity against human RPMI8226 cells xenografted in mouse assessed as tumor growth inhibition at 200 mg/kg, po administered BID relative to control. Format: functional. To be noted: RPMI-8226, po, read-out: TGI.
In experiment [7] the test system is RPMI-8226. In words: Antitumor activity against human RPMI8226 cells xenografted in mouse assessed as tumor growth inhibition at 200 mg/kg, po administered BID co-treated with pomalidomide relative to control. Format: functional. To be noted: RPMI-8226, po, read-out: TGI.
For experiment [8], the system named is NCI-H1650. In words: Antitumor activity against human NCI-H1650 cells harboring EGFR mutant xenografted in mouse assessed as tumor growth inhibition co-treated with erlotinib relative to control. Format: functional.
Experiment [9] concerns NCI-H2122. In words: Antitumor activity against human NCI-H2122 cells harboring KRAS mutant xenografted in mouse assessed as tumor growth inhibition co-treated with selumetinib relative to control. Format: functional.
In experiment [10] the test system is JIMT-1. The experiment is described as follows: Antitumor activity against human JIMT1 cells xenografted in mouse assessed as tumor growth inhibition at 200 mg/kg, po administered BID co-treated with paclitaxel relative to control. Format: functional. To be noted: JIMT-1, po, read-out: TGI.
Experiment [11] can be described thus: Antiproliferative activity against human MDA-MB-231met2 cells. Format: functional, cell-based.
Experiment [12] concerns JIMT-1. In words: Antitumor activity against human JIMT1 cells xenografted in mouse assessed as tumor growth inhibition at 200 mg/kg, po administered BID relative to control. Format: functional. To be noted: JIMT-1, po, read-out: TGI.
In experiment [13] the test system is JIMT-1. In words: Antitumor activity against human JIMT1 cells xenografted in mouse assessed as tumor growth inhibition at 10 mg/kg, po administered every other day for 5 doses relative to control. Format: functional. The settings on record: JIMT-1, po, read-out: TGI.
Experiment [14] is described as follows: Inhibition of KGA (unknown origin) using glutamine as substrate preincubated for 20 mins followed by substrate addition and measured after 2 hrs. More on the design: species or system Homo sapiens.
Experiment [15] can be described thus: Inhibition of KGA (unknown origin). Also noted: species or system Homo sapiens.
Experiment [16] has as its system RPMI-8226. In words: Antitumor activity against human RPMI8226 cells xenografted in mouse assessed as tumor growth inhibition at 1 mg/kg, po administered QD relative to control. To be noted: RPMI-8226, po, read-out: TGI. Format: functional.

For the compound `CN(C)c1ccc(C2Nc3ccc(C(C)(C)C)cc3C3=C2C(=O)CC(C)(C)C3)cc1Br` (centres undefined), in experiment [1], the IC50 amounted to 4500 nM.
As for `C#Cc1cccc(Nc2ncnc3cc(OCCOC)c(OCCOC)cc23)c1` [ERLOTINIB], in experiment [2], the TGI was 66%.
On to `O=C(Cc1cccc(OC(F)(F)F)c1)Nc1ccc(CCCCc2nnc(NC(=O)Cc3ccccn3)s2)nn1`, for which the inhibition in vivo at 200 mg/kg was determined as 61% in experiment [3]; 64% in [6]; 97% in experiment [7]; 100% in experiment [10]; 54% in experiment [12]. Moreover, the TGI in [4] was 46%; in [8], 89%; in experiment [9], 78%; in experiment [2] it was 26%. Also, the values for the concentration for half-maximal inhibition (IC50) in experiment [5] and in [11] were 20 nM and 2 to 300 nM, respectively.
Regarding `CC1(C)CC(=O)C2=C(C1)c1c(ccc3ccccc13)NC2c1ccc(C(C)(C)C)cc1` (centres undefined), the midpoint of inhibition in [1], the IC50, lay at 10000 nM.
`CN(C)c1ccc(C2Nc3ccc4ccccc4c3C3=C2C(=O)CC(C)(C)C3)cc1Br` (centres undefined) showed an IC50 in experiment [5] of 9300 nM.
Turning to `CN(C)c1ccc(C2Nc3ccc4cc5ccccc5cc4c3C3=C2C(=O)CC(C)(C)C3)cc1Br` (centres undefined), the midpoint of inhibition in [1], the IC50, lay at 1500 nM. This counts as single-digit micromolar.
As to `CC(=O)O[C@H]1C(=O)[C@@]2(C)[C@H]([C@H](OC(=O)c3ccccc3)[C@]3(O)C[C@H](OC(=O)[C@H](O)[C@@H](NC(=O)c4ccccc4)c4ccccc4)C(C)=C1C3(C)C)[C@]1(OC(C)=O)CO[C@@H]1C[C@@H]2O` [PACLITAXEL], the inhibition in vivo at 10 mg/kg in experiment [13] worked out at 73%.
For `O=C(Cc1ccccc1)Nc1nnc(CCSCCc2nnc(NC(=O)Cc3ccccc3)s2)s1`, the results for the IC50 in experiment [14] and in [15] were 160 nM and 3000 nM, respectively.
`O=C(Cc1ccccc1)Nc1nnc([C@@H]2CCC[C@@H](c3nnc(NC(=O)Cc4ccccc4)s3)C2)s1` (racemic): 100 nM corresponded to half-maximal inhibition in experiment [14] (IC50). This counts as sub-micromolar.
Take `Nc1cccc2c1C(=O)N(C1CCC(=O)NC1=O)C2=O` (centres undefined) [POMALIDOMIDE]: the inhibition in vivo at 1 mg/kg in experiment [16] turned out to be 46%.
In [5], `CN(C)c1ccc(C2Nc3ccc4ccccc4c3C3=C2C(=O)CC(C)(C)C3)cc1` (centres undefined) had a half-inhibitory concentration (IC50) of 50000 nM. This counts as double-digit micromolar.
Take `Cn1cnc2c(F)c(Nc3ccc(Br)cc3Cl)c(C(=O)NOCCO)cc21` [SELUMETINIB]: the TGI in [4] is on record as 49%.
`CC(C)c1ccc(C2Nc3ccc4ccccc4c3C3=C2C(=O)CC(C)(C)C3)cc1` (centres undefined): in experiment [5], inhibition was half-maximal at 20000 nM (IC50). This counts as double-digit micromolar.
